Data as given in patent US20210041441A1, “DISCOVERY OF NOVEL MOLECULES AND REPURPOSED DRUGS FOR RAS FAMILY GTPases” (UNM Rainforest Innovations, priority 2018, published 2021).
Entries after “also recorded” stand apart in the source; their conditions may differ. Structures can show the parent of a compound that is named as a salt. One block for each molecule: values may come before it.

Key:
Q61 KRas mutants = assay: Multiplex flow cytometry Bodipy FL-GTP binding, compound dose response, Q61 mutants; parameters: species or system Human; details: 10 nM Bodipy FL-GTP
Method: Bead Coupling: 4 μm diameter, glutathione-beads (GSH-beads), distinguished by ten different intensities of red fluorescence (varying by several orders of magnitude of emission at 665±10 nm with excitation at 635 nm) were obtained by special order from Duke Scientific Corp. Each polystyrene bead set is supplied at 1.4×10^8 beads/ml with approximately 1.2×10^6 glutathione sites per bead (determined by using GST—green fluorescent protein^42). Prior to incubation with individual GST-GTPase fusion proteins, an appropriate volume of each bead slurry was incubated for 30 minutes at room temperature in assay buffer (20 mM HEPES pH 7.5, 125 μM […], 1 mM MgCl2, 0.5 mM EDTA pH 8.0, 0.01% NP-40) supplemented with 1 mM dithiothreitol and 0.1% BSA. Following this initial incubation, passivated beads were collected by centrifugation and resuspended in assay buffer with individual GST-GTPase fusion proteins at a final concentration of […]. Overnight coupling reactions were carried out at 4° C. with rotation. The amount of each bead type used for coupling and the final volume of the coupling reaction was determined by the experimental protocol. Typically, bead sets are used at a final concentration of 200 bead/μL. To remove unbound GST-GTPase, bead sets were washed twice by centrifugation with ice-cold assay buffer. Individually coated beads were pooled together and kept cold in an appropriate volume before use in binding assays. Bead-bound proteins are sufficiently stable to study secondary interactions between GTPase-GST chimera's and Bodipy-FL GTP^54. Note that an extra GSH-bead set is included that is not protein coupled. This set serves as a ‘scavenger’ for proteins that might dissociate during the binding assay.
For assay screening plates, compound libraries were first dispensed into columns 3-22 using a Labcyte 555 Echo Acoustic Dispenser (San Jose, Calif.) for a final concentration of 10 μM. An equal volume (10 nL) of DMSO was added to the vehicle control wells (column 2). Following the addition of library compounds, 2 μL of assay buffer was added and the plates were mixed before addition of 5 μL of the protein-coupled bead mixtures; 10 μL of assay buffer was added to empty wells in columns 1 and 24. Empty wells serve as wash wells between compound wells and control wells. Plates were mixed and incubated on a rotator for 30 minutes at 4° C. before the addition of 3 μL of Bodipy FL-GTP resulting in a final concentration 10 nM Bodipy FL-GTP. Plates were mixed and incubated for 1 hour at 4° C. Negative controls, containing bead mixtures, Bodipy FL-GTP, and 30 μM unlabeled GTP were assayed separately. Dose response plates were assembled similarly.
Data Acquisition: Assay plates were sampled using the HyperCyt™ high throughput flow cytometry platform (Intellicyt; Albuquerque, N. Mex.). During sampling, the probe moves from well to well and samples 1-2 μL from each well with 0.4 sec transit time in the air before sampling the next well. The resulting sample stream consisting of 384 bubble-separated samples is delivered to an Accuri C6 flow cytometer (BD Biosciences; San Jose, Calif.). Bodipy FL-GTP fluorescence is excited at 488 nm and detected with a 533/30 bandpass filter. […] Gating based on red fluorescence emission distinguishes the separately coated beads. […]

[1] = system: Ras family GTPases (KRas WT, G12v, G13d, G12a, G12c, G12d, Q61H, Q61L, Q61R; HRas WT, HRas G12v; CDC42 WT, CDC42 L61; Rac1 WT, Rac1 L61); assay: Multiplex flow cytometry Bodipy FL-GTP binding, compound screen and dose response; details: for selectivity among GTPases (RAS vs non-RAS, individual proteins) / activity or affinity relative to other compounds: multiplex dose response; for class of modulation of Bodipy-GTP binding to Ras family GTPases (pan activator, pan inhibitor, selective inhibitor, mixed activity modulator): multiplex, 10 nM Bodipy FL-GTP, compound 100-0.015 μM, normalized to DMSO
Method: Following this initial incubation, passivated beads were collected by centrifugation and resuspended in assay buffer with individual GST-GTPase fusion proteins at a final concentration of 1 M. Overnight coupling reactions were carried out at 4° C. with rotation. The amount of each bead type used for coupling and the final volume of the coupling reaction was determined by the experimental protocol. Typically, bead sets are used at a final concentration of 200 bead/μL. To remove unbound GST-GTPase, bead sets were washed twice by centrifugation with ice-cold assay buffer. Individually coated beads were pooled together and kept cold in an appropriate volume before use in binding assays. Bead-bound proteins are sufficiently stable to study secondary interactions between GTPase-GST chimera's and Bodipy-FL GTP^54. Note that an extra GSH-bead set is included that is not protein coupled. This set serves as a ‘scavenger’ for proteins that might dissociate during the binding assay.
Data Acquisition: Assay plates were sampled using the HyperCyt™ high throughput flow cytometry platform (Intellicyt; Albuquerque, N. Mex.). During sampling, the probe moves from well to well and samples 1-2 μL from each well with 0.4 sec transit time in the air before sampling the next well. […] Plate data are acquired as time-resolved files that are parsed by software-based well identification algorithms, segregating individual well data that is merged with compound library files to determine compound activity in each well. Gating based on red fluorescence emission distinguishes the separately coated beads. Plate performance was validated using the Z-prime calculation^58.
Dose response data points were fitted by Prism® software (GraphPad Software Inc., San Diego, Calif.) using nonlinear least-squares regression in a sigmoidal dose-response model with variable slope, also known as the 4-parameter logistic equation.
Each well of an assay plate contained 10 sets of beads with variable red fluorescent intensities. Nine protein-coupled bead sets, carrying the different GST-KRas proteins were combined with an uncoupled GSH-bead that serves as a scavenger for GST-proteins that might dissociate during the assay. Bead mixtures were dispensed into individual wells of a 384-well assay plate and incubated with fluorescent GTP in the presence of library compounds. The final concentration of reagents in each assay well was 10 μM compound, 10 nM Bodipy FL-GTP, and 0.1% DMSO. Each bead set was added at 200 beads/μL. Each plate was analyzed both in forward (starting with A1) and reverse direction to account for fluorescent compounds that can carryover during sampling and effect subsequent sample values. […] Excess GTP containing wells were evaluated separately and were used, along with the DMSO control wells, to calculate a Z′ value for each bead set. […] A secondary single point evaluation was performed on these identified primary hits.

GTPases = details: cited from earlier work
[2] = system: KRas G12v, HRas G12V, Kras Q61R, Rac1 L61, CDC42; assay: Equilibrium kinetics assays, real-time Bodipy FL-GTP association and dissociation; type: binding, Human; details: for displacement of pre-bound Bodipy FL-GTP: pre-binding at 4° C. or RT in the presence of Mg2+
Method: Equilibrium Kinetics Assays: GTPase-coupled beads were prepared as described above and were kept on ice until used. Reactions were performed at room temperature in amber micro-centrifuge tubes in an appropriate volume of assay buffer. Bead mixtures were initially incubated on a rotator with Guanabenz acetate (100 μM) or DMSO for 30 min at 4° C. prior to the addition of 1 nM Bodipy FL-GTP. Real-time binding kinetics was recorded using an Accuri C6 flow cytometer. Binding association was followed for 15 minutes at which time excess GTP was added. Disassociation kinetics was followed for an additional 25 minutes. Data was analyzed using GraphPad Prism software. The association time course was fitted to a two phase exponential association and the dissociation time course was fitted to a two phase decay (exponential).
To determine mechanism of action, we evaluated binding and dissociation of Bodipy FL-GTP in real-time kinetic experiments in the presence of Guanabenz acetate or GTP. Tests included pre-binding of Bodipy-FL GTP at 4′ C. or RT in the presence of Mg^2+.
It was then elected to perform association rate analysis, using the order of addition of reagents used in screening, where guanabenz was added first, incubated at 4° C., then Bodipy FL-GTP was added at room temperature.

[3] = system: H-Ras, H-RasG12V, Rab and Rho subfamilies; details: earlier studies; cited from earlier work
[4] = biological target: KRas proteins (Wild type, G12v, G13d, G12a, G12c, G12d, Q61L, and Q61R); assay: Dose dependent Bodipy FL-GTP binding assay, KRas multiplex; parameters: species or system Human; details: separate KRas proteins, 1 hour at 4° C.; read-out: binding affinities
Description: Bead Coupling: 4 μm diameter, glutathione-beads (GSH-beads), distinguished by ten different intensities of red fluorescence (varying by several orders of magnitude of emission at 665±10 nm with excitation at 635 nm) were obtained by special order from Duke Scientific Corp. Each polystyrene bead set is supplied at 1.4×10^8 beads/ml with approximately 1.2×10^6 glutathione sites per bead (determined by using GST—green fluorescent protein^42). […] The amount of each bead type used for coupling and the final volume of the coupling reaction was determined by the experimental protocol. […]
Dose Dependent Bodipy FL-GTP Binding Assays: For dose dependence binding assays, GTPase-coupled bead sets were incubated on a rotator for 1 hour at 4° C. with varying concentrations of Bodipy FL-GTP (0.3-300 nM). […] Non-specific binding of Bodipy-FL GTP was assessed by incubating coupled beads with excess GTP prior to the addition of the Bodipy analogue. […]
Assay Plate Assembly: Plate assays were performed in 384-well microtiter plates (Greiner Bio-one, #784101); plates were assembled using a BioTek MultiFlo™ Microplate Dispenser. For dose-dependent Bodipy FL-GTP binding assays, total and non-specific binding were assessed by pre-incubation (30 min/4° C.) in the absence or presence of 30 μM GTP, respectively. […]

GTPases (Rac1 and Cdc42) = details: in cells, earlier studies; read-out: IC50 values for inhibitory activity against the GTPases; cited from earlier work

Molecule: CSc1ccc(/C=C2/C(C)=C(CC(=O)O)c3cc(F)ccc32)cc1 [sulindac sulfide]
reported activity (GTPases): inhibitors

Molecule: O=C(c1ccccc1)c1ccc2n1CCC2C(=O)O (stereo not drawn) [ketorolac]
reported activity (GTPases): inhibitors

Molecule: CC1(C)Cc2c(sc(NC(=S)NC(=O)c3ccccc3)c2C(=O)O)CO1 [CID1067700]
inhibitory activity on guanine nucleotide binding [3]: inhibitory activity against H-Ras and H-RasG12V; also recorded: broad spectrum inhibitor of the Rab and Rho subfamilies; also recorded: competitive inhibitor of nucleotide binding

Molecule: Guanosine 5′-Triphosphate, BODIPY™ FL 2′-(or-3′)-O-(N-(2-Aminoethyl) Urethane), Trisodium Salt [Bodipy FL-GTP]
Kd [4]: 1 to 50 nM

Molecule: O=C(c1ccccc1)c1ccc2n1CC[C@H]2C(=O)O [R-ketorolac]
IC50 (GTPases (Rac1 and Cdc42)): 500 to 1000 nM

Now from value to molecule, other results behind:

effect on GTP binding to Q61 KRas mutants (Q61 KRas mutants): activates Q61 KRas mutants
selectivity among GTPases (RAS vs non-RAS, individual proteins) [1]: RAS activator, non-RAS inhibitor
class of modulation of Bodipy-GTP binding to Ras family GTPases (pan activator, pan inhibitor, selective inhibitor, mixed activity modulator) [1]: modulators with mixed activity
class of modulation of Bodipy-GTP binding to Ras family GTPases (pan activator, pan inhibitor, selective inhibitor, mixed activity modulator) ([1]; listed as SF1760): mixed activity
Molecule: CC(C)(C)C(=O)Nc1ccc2c(c1)C(=O)C(=O)c1ccccc1-2 [SF1670]

effect on GTP binding to Q61 KRas mutants (Q61 KRas mutants): not to Q61 KRas mutants
activity or affinity relative to other compounds [1]: most active
class of modulation of Bodipy-GTP binding to Ras family GTPases (pan activator, pan inhibitor, selective inhibitor, mixed activity modulator) ([1]; hydrochloride): selective inhibitors
class of modulation of Bodipy-GTP binding to Ras family GTPases (pan activator, pan inhibitor, selective inhibitor, mixed activity modulator) ([1]; listed as chlorprothixene hydrochloride, hydrochloride): Selective inhibitors
class of modulation of Bodipy-GTP binding to Ras family GTPases (pan activator, pan inhibitor, selective inhibitor, mixed activity modulator) ([1]; listed as chlorproxithene, hydrochloride): selective inhibition
Molecule: CN(C)CC/C=C1/c2ccccc2Sc2ccc(Cl)cc21 [Chlorprothixene hydrochloride]
selectivity among GTPases (RAS vs non-RAS, individual proteins) [1]: selective for KRas WT, the KRas G12 mutants, and the HRas proteins

effect on GTP binding to Q61 KRas mutants (Q61 KRas mutants): not to Q61 KRas mutants
class of modulation of Bodipy-GTP binding to Ras family GTPases (pan activator, pan inhibitor, selective inhibitor, mixed activity modulator) ([1]; listed as NSC663284): Selective inhibitors
Molecule: O=C1C(Cl)=C(NCCN2CCOCC2)C(=O)c2ncccc21 [NSC 663284]

displacement of pre-bound Bodipy FL-GTP [2]: could be displaced by GTP
Molecule: Nc1nc2c(ncn2[C@@H]2O[C@H](COP(=O)(O)OP(=O)(O)OP(=O)(O)O)[C@@H](O)[C@H]2O)c(=O)[nH]1 [GTP]

effect on GTP binding to Q61 KRas mutants (Q61 KRas mutants): not to Q61 KRas mutants
displacement of pre-bound Bodipy FL-GTP [2]: not able to displace Bodipy FL-GTP
class of modulation of Bodipy-GTP binding to Ras family GTPases (pan activator, pan inhibitor, selective inhibitor, mixed activity modulator) [1]: selective inhibitors
class of modulation of Bodipy-GTP binding to Ras family GTPases (pan activator, pan inhibitor, selective inhibitor, mixed activity modulator) ([1]; listed as guanabenz acetate): Selective inhibitors
Molecule: N=C(N)N/N=C/c1c(Cl)cccc1Cl [Guanabenz acetate]
association of Bodipy FL-GTP ([2]; guanabenz added first at 4° C., then Bodipy FL-GTP at room temperature, KRas G12v and HRas G12V vs Kras Q61R, Rac1 L61 and CDC42): Dramatic differences in association
dissociation of Bodipy FL-GTP ([2]; stable GTPases in the absence of Mg): did not induce dissociation
selectivity among GTPases (RAS vs non-RAS, individual proteins) [1]: selective for KRas WT, the KRas G12 mutants, and the HRas proteins
activity or affinity relative to other compounds ([1]; listed as guanabenz acetate): most active; also recorded: comparable activity to a recently described KRas inhibitor with low μM affinity
selectivity among GTPases (RAS vs non-RAS, individual proteins) ([1]; listed as guanabenz acetate): does not appear to limit selectivity to G12D

effect on GTP binding to Q61 KRas mutants (Q61 KRas mutants): not to Q61 KRas mutants
class of modulation of Bodipy-GTP binding to Ras family GTPases (pan activator, pan inhibitor, selective inhibitor, mixed activity modulator) ([1]; hydrochloride): selective inhibitors
Molecule: CN1CCN(CCCN2c3ccccc3Sc3ccc(C(F)(F)F)cc32)CC1 [Trifluperazine Hydrochloride]
class of modulation of Bodipy-GTP binding to Ras family GTPases (pan activator, pan inhibitor, selective inhibitor, mixed activity modulator) ([1]; listed as trifluoperazine, Hydrochloride): Selective inhibitors; also recorded: weak inhibition
